Literature values in patent US20020015956A1, “Compositions and methods for the identification, assessment, prevention, and therapy of human cancers” (priority 2000, published 2002).

System: tumor
Conditions: animal models

CC(=O)O[C@@]12CO[C@@H]1C[C@H](O)[C@@]1(C)C(=O)[C@H](O)C3=C(C)[C@@H](OC(=O)[C@H](O)[C@@H](NC(=O)OC(C)(C)C)c4ccccc4)C[C@@](O)([C@@H](OC(=O)c4ccccc4)[C@H]21)C3(C)C [Taxotere, docetaxel]
anti-tumor activity: good anti-tumor activity
